# Test results: patent US6380169B1, “Metal complex containing oligonucleoside cleavage compounds and therapies” (ISIS Pharmaceuticals, Inc., priority 1994, dated 2002)
# Test system: 5′-capped RNA transcript (SEQ ID NO:1)
# Assay: Cleavage of 3′-end-labeled, 5′-capped RNA by Eu[THED]^3+ (single strand or hybridized to complementary 18-mer DNA oligomer)
# Format: biochemical
# Conditions: 1 mM Eu[THED]^3+
# Method: In particular, the ability of Eu[THED]^3+ to hydrolyze 5′-capped RNA was established using a 3′-radiolabeled, 5′-capped RNA transcript.
# A target oligonucleotide transcript having the following sequence was used (SEQ ID NO:1):
# 5′-capped RNA was made from the above amplicon using a T7 MEGAshortscript™ transcription kit (Ambion). 5′-capped transcripts were synthesized in a 20 μL reaction volume containing transcription buffer, T7 RNA polymerase, 7.5 mM rNTPs (except rGTP), 1.9 mM rGTP, 7.5 mM ^7MeGpppG and 200 nM DNA amplicon template. For synthesis of uncapped RNA, the capping dinucleotide was omitted from the reaction and rGTP concentration was increased to 7.5 mM. Reaction mixtures were incubated four hours at 37° C. After the transcription reaction was complete, template DNA was digested with 1 U DNase for 15 minutes at 37° C. Transcripts were purified from unincorporated nucleotides and truncated message by PAGE. The transcripts were visualized by UV back shadowing, and the RNA in the excised gel bands was purified using an RNaid™ kit (Bio 101) which is designed specifically for purification of RNA from polyacrylamide gels. As expected, the product of the 5′-capped RNA reaction contained a band that ran one base slower than the uncapped transcript on a 15% gel.
# Transcripts were 3′ end-labeled with ^32p cordycepin triphosphate using terminal transferase. This enzyme prefers DNA as a substrate, but limited labeling of RNA can be achieved with the use of Co^++. As expected, 3′-end-labeling occurred, but the extent of labeling was low.
# After preparing 3′-end-labeled, 5′-capped RNA, the ability of Eu[THED]^3+ to cleave (or “decapitate”) the cap structure of the RNA was tested. The reaction conditions were as follows: 1 mM Eu[THED]^3+, 75 μM capped RNA target (˜3 mM with respect to phosphate bonds), 20 mM Tris-HCl, pH 7.0, 100 mM NaCl and 0.2% SDS. A second set of samples further contained 100 μM of an 18-mer DNA oligomer which was complementary to the sequence immediately adjacent to the 5′-cap. […]
# [1] = Hybrid (100 μM 18-mer DNA), time 0 min
# [2] = Hybrid (100 μM 18-mer DNA), time 15 min
# [3] = Hybrid (100 μM 18-mer DNA), time 30 min
# [4] = Hybrid (100 μM 18-mer DNA), time 60 min
# [5] = Hybrid (100 μM 18-mer DNA), time 120 min
# [6] = Hybrid (100 μM 18-mer DNA), time 180 min
substance,measurement,setting,value
"europium (III) complex of 1,4,7,10-tetrakis (2-hydroxyethyl)-1,4,7,10-tetraazacyclododecane [Eu[THED]]",Capped RNA counts/area,[1],3975 counts/area
same,Decapitated RNA counts/area,[1],1031 counts/area
same,Capped RNA counts/area,[2],4073 counts/area
same,Decapitated RNA counts/area,[2],923 counts/area
same,Capped RNA counts/area,[3],4070 counts/area
same,Decapitated RNA counts/area,[3],1073 counts/area
same,Capped RNA counts/area,[4],3315 counts/area
same,Decapitated RNA counts/area,[4],1583 counts/area
same,Capped RNA counts/area,[5],3509 counts/area
same,Decapitated RNA counts/area,[5],1946 counts/area
same,Capped RNA counts/area,[6],2658 counts/area
same,Decapitated RNA counts/area,[6],1934 counts/area
same,backbone cleavage of RNA,"either data set (ssRNA and hybrid), 75 μM capped RNA",no evidence of backbone cleavage
same,Capped RNA counts/area,"ssRNA, time 0 min",3266 counts/area
same,Decapitated RNA counts/area,"ssRNA, time 0 min",1130 counts/area
same,Capped RNA counts/area,"ssRNA, time 30 min",3481 counts/area
same,Decapitated RNA counts/area,"ssRNA, time 30 min",1736 counts/area
same,Capped RNA counts/area,"ssRNA, time 120 min",2232 counts/area
same,Decapitated RNA counts/area,"ssRNA, time 120 min",2195 counts/area
same,Capped RNA counts/area,"ssRNA, time 180 min",1982 counts/area
same,Decapitated RNA counts/area,"ssRNA, time 180 min",1949 counts/area
